One assay addresses T1, Gonadotropin-releasing hormone receptor (Homo sapiens, UniProt P30968).
T1 sequence (P30968 whole entry): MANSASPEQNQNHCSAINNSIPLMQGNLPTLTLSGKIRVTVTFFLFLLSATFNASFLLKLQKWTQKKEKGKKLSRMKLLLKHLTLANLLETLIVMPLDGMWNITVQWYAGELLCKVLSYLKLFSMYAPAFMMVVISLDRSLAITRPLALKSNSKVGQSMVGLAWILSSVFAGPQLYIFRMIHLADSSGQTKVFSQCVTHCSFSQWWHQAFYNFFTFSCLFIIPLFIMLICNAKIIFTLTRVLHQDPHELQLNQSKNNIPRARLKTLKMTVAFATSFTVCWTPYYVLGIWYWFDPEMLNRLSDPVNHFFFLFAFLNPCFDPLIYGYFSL
Put plainly: Inhibitory concentration towards human leutinizing releasing hormone receptor.
`COc1ccc(CNS(=O)(=O)c2ccc3c(c2)nc(CCNC(=O)NC(C)(C)C)n3Cc2ccccc2)cc1` gave an IC50 of 340 nM.

The compound `CC(C)NC(=O)NCCc1nc2cc(S(=O)(=O)NCc3ccc(F)cc3)ccc2n1Cc1ccccc1` had a half-maximal inhibitory concentration (IC50) of 150 nM.

For `CC(C)(C)NC(=O)NCCc1nc2cc(S(=O)(=O)NCc3ccc(F)cc3)ccc2n1Cc1ccccc1`, the IC50 worked out at 20 nM. Compared with the last compound, the IC50 is about 7.5-fold lower.

Compound `O=S(=O)(NCc1ccc(F)cc1)c1ccc2c(c1)nc(C1CC1)n2Cc1ccccc1` registered a 50% inhibitory concentration (IC50) of 1900 nM.

The compound `CC(C)(C)NC(=O)CCCc1nc2cc(S(=O)(=O)NCc3ccc(F)cc3)ccc2n1Cc1ccccc1` showed an IC50 of 400 nM. Against the preceding compound, the IC50 is about 4.8-fold lower.

On to `CCCc1nc2cc(S(=O)(=O)NCc3ccc(F)cc3)ccc2n1Cc1ccccc1`, for which the IC50 is above 10000 nM.

Regarding `NCCc1nc2cc(S(=O)(=O)NCc3ccc(F)cc3)ccc2n1Cc1ccccc1`, the half-maximal inhibitory concentration (IC50) is above 10000 nM.

On to `CC(C)(C)CNC(=O)NCCc1nc2cc(S(=O)(=O)NCc3ccc(F)cc3)ccc2n1Cc1ccccc1`, for which the IC50 stood at 110 nM.

With `CC(C)(C)NC(=O)NCCc1nc2cc(S(=O)(=O)NCc3ccccc3F)ccc2n1Cc1ccccc1`, the half-maximal inhibitory concentration (IC50) was 750 nM.

`CCNC(=O)NCCc1nc2cc(S(=O)(=O)NCc3ccc(F)cc3)ccc2n1Cc1ccccc1` had an IC50 of 690 nM. This IC50 and that of the compound before are within 1.5-fold of each other.

Consider `CC(C)(C)NC(=O)NCCc1nc2cc(S(=O)(=O)NCc3ccccc3)ccc2n1Cc1ccccc1`, for which the IC50 was 490 nM.

Compound `O=C(NCCc1nc2cc(S(=O)(=O)NCc3ccc(F)cc3)ccc2n1Cc1ccccc1)Nc1ccccc1F` registered an IC50 of 66 nM.

For `CC(C)(C)NC(=O)NCCc1nc2cc(S(=O)(=O)NCc3ccc(Cl)cc3Cl)ccc2n1Cc1ccccc1`, the IC50 came to 22 nM.

In turn, `O=C(NCCc1nc2cc(S(=O)(=O)NCc3ccc(F)cc3)ccc2n1Cc1ccccc1)Nc1ccccc1Cl` registered a 50% inhibitory concentration (IC50) of 83 nM.

Regarding `CC(C)(C)NC(=O)NCCc1nc2cc(S(=O)(=O)NCc3ccc(Cl)cc3)ccc2n1Cc1ccccc1`, half-maximal inhibition (IC50) required 4.2 nM.

`CC(C)(C)OC(=O)NCCc1nc2cc(S(=O)(=O)NCc3ccc(F)cc3)ccc2n1Cc1ccccc1` yielded an IC50 of 740 nM.

Turning to `CC(C)(C)NC(=O)NCCCc1nc2cc(S(=O)(=O)NCc3ccc(F)cc3)ccc2n1Cc1ccccc1`, the IC50 amounted to 180 nM.

`CC(C)(C)CC(=O)NCCc1nc2cc(S(=O)(=O)NCc3ccc(F)cc3)ccc2n1Cc1ccccc1` had a 50% inhibitory concentration (IC50) of 2600 nM.

Turning to `CC(C)(C)NC(=O)NCCc1nc2cc(S(=O)(=O)NCc3ccc(C(F)(F)F)c(F)c3)ccc2n1Cc1ccccc1`, the IC50 was found to be 57 nM.

Consider `CC(C)(C)NC(=O)NCCc1nc2cc(S(=O)(=O)NCc3ccc(F)c(F)c3)ccc2n1Cc1ccccc1`, for which the IC50 was determined as 170 nM.

With `CC(C)c1nc2cc(S(=O)(=O)NCc3ccc(F)cc3)ccc2n1Cc1ccccc1`, the IC50 worked out at 390 nM.

The target in another assay is T2, Gonadotropin-releasing hormone receptor (Rattus norvegicus, UniProt P30969).
T2 sequence (P30969 whole entry): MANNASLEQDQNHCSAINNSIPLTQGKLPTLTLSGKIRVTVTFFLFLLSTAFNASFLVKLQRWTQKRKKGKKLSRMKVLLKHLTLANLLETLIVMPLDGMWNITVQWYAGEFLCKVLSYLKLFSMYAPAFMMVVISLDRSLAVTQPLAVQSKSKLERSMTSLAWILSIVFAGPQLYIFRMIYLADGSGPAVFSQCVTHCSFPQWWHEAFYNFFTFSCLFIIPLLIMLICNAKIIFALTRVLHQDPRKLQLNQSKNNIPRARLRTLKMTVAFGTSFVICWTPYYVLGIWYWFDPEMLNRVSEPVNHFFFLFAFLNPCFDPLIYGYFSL
Briefly: Inhibitory concentration towards rat leutinizing releasing hormone receptor.
`COc1ccc(CNS(=O)(=O)c2ccc3c(c2)nc(CCNC(=O)NC(C)(C)C)n3Cc2ccccc2)cc1` displayed an IC50 of 200 nM. This lies in the sub-micromolar range.

`CC(C)NC(=O)NCCc1nc2cc(S(=O)(=O)NCc3ccc(F)cc3)ccc2n1Cc1ccccc1` returned an IC50 of 79 nM.

`CC(C)(C)NC(=O)NCCc1nc2cc(S(=O)(=O)NCc3ccc(F)cc3)ccc2n1Cc1ccccc1` showed an IC50 of 12 nM. Against the preceding compound, the IC50 is about 6.6-fold lower.

On to `O=S(=O)(NCc1ccc(F)cc1)c1ccc2c(c1)nc(C1CC1)n2Cc1ccccc1`, for which the 50% inhibitory concentration (IC50) was 1600 nM.

The compound `CC(C)(C)NC(=O)CCCc1nc2cc(S(=O)(=O)NCc3ccc(F)cc3)ccc2n1Cc1ccccc1` showed a half-inhibitory concentration (IC50) of 230 nM.

In turn, `CCCc1nc2cc(S(=O)(=O)NCc3ccc(F)cc3)ccc2n1Cc1ccccc1` displayed an IC50 above 10000 nM.

Take `NCCc1nc2cc(S(=O)(=O)NCc3ccc(F)cc3)ccc2n1Cc1ccccc1`: the concentration for half-maximal inhibition (IC50) was above 10000 nM.

Compound `CC(C)(C)CNC(=O)NCCc1nc2cc(S(=O)(=O)NCc3ccc(F)cc3)ccc2n1Cc1ccccc1` had an IC50 of 30 nM.

Consider `CC(C)(C)NC(=O)NCCc1nc2cc(S(=O)(=O)NCc3ccccc3F)ccc2n1Cc1ccccc1`, for which the IC50 came out at 450 nM.

As to `CCNC(=O)NCCc1nc2cc(S(=O)(=O)NCc3ccc(F)cc3)ccc2n1Cc1ccccc1`, 380 nM corresponded to half-maximal inhibition (IC50).

For the compound `CC(C)(C)NC(=O)NCCc1nc2cc(S(=O)(=O)NCc3ccccc3)ccc2n1Cc1ccccc1`, the IC50 stood at 310 nM.

In the case of `O=C(NCCc1nc2cc(S(=O)(=O)NCc3ccc(F)cc3)ccc2n1Cc1ccccc1)Nc1ccccc1F`, the midpoint of inhibition, the IC50, lay at 53 nM. This IC50 is about 5.8-fold lower than that of the compound before.

In turn, `CC(C)(C)NC(=O)NCCc1nc2cc(S(=O)(=O)NCc3ccc(Cl)cc3Cl)ccc2n1Cc1ccccc1` came in with a concentration for half-maximal inhibition (IC50) of 14 nM.

As for `O=C(NCCc1nc2cc(S(=O)(=O)NCc3ccc(F)cc3)ccc2n1Cc1ccccc1)Nc1ccccc1Cl`, the IC50 worked out at 50 nM.

Consider `CC(C)(C)NC(=O)NCCc1nc2cc(S(=O)(=O)NCc3ccc(Cl)cc3)ccc2n1Cc1ccccc1`, for which half-maximal inhibition (IC50) was put at 3.9 nM.

`CC(C)(C)OC(=O)NCCc1nc2cc(S(=O)(=O)NCc3ccc(F)cc3)ccc2n1Cc1ccccc1` yielded an IC50 of 540 nM.

In turn, `CC(C)(C)NC(=O)NCCCc1nc2cc(S(=O)(=O)NCc3ccc(F)cc3)ccc2n1Cc1ccccc1` gave an IC50 of 83 nM.

In turn, `CC(C)(C)CC(=O)NCCc1nc2cc(S(=O)(=O)NCc3ccc(F)cc3)ccc2n1Cc1ccccc1` registered a half-maximal inhibitory concentration (IC50) of 840 nM. This IC50 is about 10-fold higher than that of the compound before.

On to `CC(C)(C)NC(=O)NCCc1nc2cc(S(=O)(=O)NCc3ccc(C(F)(F)F)c(F)c3)ccc2n1Cc1ccccc1`, for which half-maximal inhibition (IC50) was put at 51 nM. Against the preceding compound, the IC50 is about 16-fold lower.

With `CC(C)(C)NC(=O)NCCc1nc2cc(S(=O)(=O)NCc3ccc(F)c(F)c3)ccc2n1Cc1ccccc1`, the 50% inhibitory concentration (IC50) worked out at 110 nM.

`CC(C)c1nc2cc(S(=O)(=O)NCc3ccc(F)cc3)ccc2n1Cc1ccccc1` showed an IC50 of 690 nM.

The values above are taken from ChEMBL document CHEMBL1144305, “Benzimidazole derivatives as novel nonpeptide luteinizing hormone-releasing hormone (LHRH) antagonists. Part 2: Benzimidazole-5-sulfonamides” (Bioorg Med Chem Lett, 2005).
